This passage reports IC50 results from ChEMBL document CHEMBL3616375, “Novel 11β-HSD1 inhibitors: C-1 versus C-2 substitution and effect of the introduction of an oxygen atom in the adamantane scaffold” (Bioorg Med Chem Lett, 2015).

This assay deals with 11-beta-hydroxysteroid dehydrogenase 1 (Homo sapiens, UniProt P28845). The experiment in a line: Inhibition of 11beta-HSD1 in human mixed sex human liver microsomes assessed as reduction in conversion of [3H]-cortisone to [3H]-cortisol pre-incubated for 15 mins before [3H]-cortisone addition in presence of NADPH by scintillation proximity assay.
Sequence of 11-beta-hydroxysteroid dehydrogenase 1 (P28845 whole entry): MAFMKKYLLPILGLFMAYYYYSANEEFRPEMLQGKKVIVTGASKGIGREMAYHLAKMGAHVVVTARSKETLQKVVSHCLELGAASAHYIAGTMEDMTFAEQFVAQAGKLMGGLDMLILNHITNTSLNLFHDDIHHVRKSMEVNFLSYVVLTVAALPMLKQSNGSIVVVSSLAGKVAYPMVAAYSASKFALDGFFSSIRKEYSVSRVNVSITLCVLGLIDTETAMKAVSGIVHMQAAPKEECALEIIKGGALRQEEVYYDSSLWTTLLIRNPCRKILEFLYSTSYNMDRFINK

Regarding `O=C(NC1C2CC3CC(C2)CC1C3)C1CCCCC1` (stereo unspecified), the IC50 is 86 nM.
